Here are results for six compounds from patent publication EP1007514B1, “HETEROCYCLIC KETONES AS NPY Y5 ANTAGONISTS” (BAYER CORPORATION, priority 1997, dated 1999).

Test [1] addresses T1, rat NPY Y5 receptor subtype (Rattus norvegicus, UniProt Q63634).
T1 sequence (Q63634 1-445): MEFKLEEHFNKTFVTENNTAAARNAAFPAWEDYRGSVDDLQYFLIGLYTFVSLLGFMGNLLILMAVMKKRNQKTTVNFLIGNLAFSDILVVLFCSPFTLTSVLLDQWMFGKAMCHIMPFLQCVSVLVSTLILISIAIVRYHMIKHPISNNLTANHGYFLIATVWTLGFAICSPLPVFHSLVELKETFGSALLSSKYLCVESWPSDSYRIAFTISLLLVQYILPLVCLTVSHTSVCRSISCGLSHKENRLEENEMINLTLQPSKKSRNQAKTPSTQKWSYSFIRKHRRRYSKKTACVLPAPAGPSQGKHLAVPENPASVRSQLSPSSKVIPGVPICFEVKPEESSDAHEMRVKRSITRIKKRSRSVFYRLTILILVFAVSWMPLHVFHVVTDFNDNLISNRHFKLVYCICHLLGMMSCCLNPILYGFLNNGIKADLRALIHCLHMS
The test is described as follows: NPY Y5 receptor membrane binding, [125I]PYY (rat). As to conditions: membrane protein; 75-100 pM [125I]PYY; 50% inhibition of specific binding; read-out: IC50 (µM) NPY receptor indicated rY5. The method, then:
Assays to determine human and rat NPY Y5 receptor subtype binding affinity are performed on GF/C Millipore 96-well plates pretreated with 0.02% polyethylenimine. The binding buffer is 25 mM Tris, 120 mM NaCl, 5 mM KCl, 1.2 mM KH2PO4, 2.5 mM CaCl2, 1.2 mM MgSO4, 0.1% BSA and 0.5 mg/ml bacitracin, pH 7.4. Samples consist of membrane protein, 75-100 pM [^125I] PYY (porcine, NEN-DuPont) and test compounds diluted in binding buffer. Nonspecific binding is defined by 1 µM PYY. After a 2 hour incubation at room temperature with constant mixing, the samples are aspirated on a vacuum manifold and rinsed with ice-cold binding buffer. The amount of radioactivity in each well is quantitated with either gamma counting or liquid scintillation. IC50 values, which correspond to 50% inhibition of specific binding, are determined with non-linear regression analysis.

A further test addresses T2, human NPY Y2 (Homo sapiens, UniProt P49146).
T2 sequence (P49146 1-381): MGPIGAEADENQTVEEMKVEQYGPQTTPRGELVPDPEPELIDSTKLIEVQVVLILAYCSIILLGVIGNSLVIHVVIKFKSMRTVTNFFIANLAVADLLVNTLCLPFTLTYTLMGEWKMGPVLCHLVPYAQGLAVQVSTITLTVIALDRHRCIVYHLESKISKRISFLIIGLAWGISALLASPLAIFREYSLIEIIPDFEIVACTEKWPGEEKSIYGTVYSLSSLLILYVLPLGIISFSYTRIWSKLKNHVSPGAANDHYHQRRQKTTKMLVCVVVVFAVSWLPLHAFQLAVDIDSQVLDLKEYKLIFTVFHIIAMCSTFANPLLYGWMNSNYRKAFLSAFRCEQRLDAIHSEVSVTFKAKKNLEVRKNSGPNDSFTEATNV
The test is described as follows: NPY Y2 receptor membrane binding, [125I]PYY. The conditions noted are these: membrane protein; 25 pM [125I]PYY; test compounds at 5 µM final concentration; read-out: IC50 (µM) NPY receptor indicated hY2. The method, then: Assays to determine binding affinity for human NPY Y2 and Y4/PP1 receptor subtypes are performed on GF/C Millipore 96-well plates pretreated with 0.02% polyethylenimine. […] Samples consist of membrane protein, 25 pM [^125I]PYY and test compounds at 5 µM final concentration. Nonspecific binding is defined by 1 µM NPY. The binding buffer for human Y4/PP1 binding consists of 137 mM NaCl, 5.4 mM KCl, 0.44 mM KH2PO4, 1.26 mM CaCl2, 0.81 mM MgSO4, 20 mM HEPES, 1 mM dithiothreitol, 0.1% bacitracin, 100 mg/l streptomycin sulfate, 1 mg/l aprotinin, 10 mg/ml soybean trypsin inhibitor and 0.3% BSA, pH 7.4. Samples consist of membrane protein, 50 pM human [^125I] human PP (hPP:NEN DuPont, Boston MA) and test compounds diluted to a final concentration of 5 µM. One µM hPP is used to define nonspecific binding. After a 2 hour incubation at room temperature with constant mixing, the samples are aspirated on a vacuum manifold, and rinsed with ice-cold binding buffer. The amount of radioactivity in each well is quantitated with either gamma counting or liquid scintillation.

Another test has as its target T3, rat NPY Y5 receptor (Rattus norvegicus, UniProt Q63634).
T3 construct: expressed in transfected cells
T3 sequence (Q63634 1-445): T1 sequence (Q63634 1-445)
In words: In vitro functional assay, forskolin-stimulated cAMP in cells stably expressing the receptor. The format is cell-based. The conditions noted are these: percentage of forskolin-stimulated adenylate cyclase; 1 µM forskolin; test compound 10 µM; 80 - 120% indicates no significant agonistic effect. How it is done:
An in vitro functional assay to determine rat NPY Y5 receptor subtype binding affinity is performed by resuspending cells stably expressing the rat NPY Y5 receptor in serum-free DMEM containing 10 mM HEPES (pH 7.4) and 1 mM isobutylmethylxanthine (IBMX). One µM forskolin and test compounds at a final concentration of 10 µM are then added to the cells. After a 20 minute incubation of the samples at 37°C, the assay is stopped by placing the samples in boiling water for 3 minutes. The cAMP produced in each sample is quantitated with a radioimmunoassay kit (NEN DuPont). Data are expressed as a percentage of forskolin-stimulated adenylate cyclase. Data between 80 - 120% indicates no significant agonistic effect.

Where only a bound is given, the exact number is not on record here.

In general, IC50 refers to the concentration needed to halve the response being measured. In the case of `Cc1ccc(SCC(C(=O)c2ncc[nH]2)c2ccccc2)cc1` (stereo not shown) [Compound 2, (1H-Imidazol-2-yl)-2-phenyl-3-p-tolylsulfanyl-propan-1-one], the IC50 in test [1] is 0.46 µM; on human NPY Y2, above 5 µM.
For the compound `Cc1ccc(S(=O)(=O)CC(C(=O)c2nc3ccccc3s2)c2ccccc2)cc1` (stereo not shown) [Compound 6, 1-Benzothizol-2-yl-2-phenyl-3-(toluene-4-sulfonyl)-propan-1-one], the IC50 in test [1] was 10 µM; at human NPY Y2, above 5 µM. Also, the “% forskolin at 10 µM” value on rat NPY Y5 receptor amounted to 89%.
In the same order, the values of `Cc1ccc(S(=O)(=O)CC(C(=O)c2nc3cc(C)c(C)cc3[nH]2)c2ccccc2)cc1` (stereo not shown) [Compound 7, (5,6-Dimethyl-1H-benzoimidazol-2-yl)-2-phenyl-3-(toluene-4-sulfonyl)-propan-1-one] are 0.0526 µM, 8.3 µM and 122%.
In the same order, the values of `O=C(c1nc2ccccc2[nH]1)C(CS(=O)(=O)c1ccccc1)c1ccccc1` (stereo not shown) [Compound 8, 3-Benzenesulfonyl-1-(1H-benzoimidazol-2-yl)-2-phenyl-propan-1-one] are 0.011 µM, above 5 µM and 105%.
Consider `COc1ccc(S(=O)(=O)CC(C(=O)c2nc3ccccc3[nH]2)c2ccccc2)cc1` (stereo not shown) [Compound 10, 1-(1H-Benzoimidazol-2-yl)-3-(4-methoxy-benzenesulfonyl)-2-phenyl-propan-1-one], for which the values for the IC50 (in test [1]; at human NPY Y2) were 0.0067 µM and above 5 µM, respectively. Moreover, the “% forskolin at 10 µM” value on rat NPY Y5 receptor worked out at 106%.
With `COc1ccc2[nH]c(C(=O)C(CS(=O)(=O)c3ccc(C)cc3)c3ccccc3)nc2c1` (stereo not shown) [Compound 14, 1-(5-Methoxy-1H-benzoimidazol-2-yl)-2-phenyl-3-(toluene-4-sulfonyl)-propan-1-one], the “% forskolin at 10 µM” value at rat NPY Y5 receptor was determined as 99%. Also, the IC50 at human NPY Y2 was above 5 µM.
